We go through one compound from patent US20240277890A1, “ANTIMICROBIAL ARTICLES COMPRISING POLYURETHANE” (Amicoat AS, priority 2021, published 2024).

As usually defined, the MIC is the smallest concentration in the dilution series that meets the test's criterion for growth inhibition.

Converted amounts (≈) assume the structure as drawn.

This experiment concerns Propionibacterium acnes- antibiotic-resistant clinical isolate. The settings on record: P. acnes antibiotic-resistant.

Turning to `CCCCCCNC(=O)[C@H](CCCNC(=N)N)NC(=O)[C@H](Cc1c(C(C)(C)C)[nH]c2c(C(C)(C)C)cc(C(C)(C)C)cc12)NC(=O)[C@@H](N)CCCNC(=N)N` [Compound 8], the minimum inhibitory concentration (MIC) was 2 µg/mL (≈ 2.6 µM).
